We go through two molecules from US20070142317A1, “Topical composition for treatment of skin disorders” (QLT USA, Inc., priority 2003, published 2007).

Data set [1] has as its system U-937 cells. As to the kind of experiment: Cytokine secretion by ELISA (Example 31). Format: cell-based. The note with it: drug 1 μM; for Cytokine Secretion IL-6 pg/ml Mean of 3 Replicates: LPS-activated cells. Here is the method:
In a search for a topical agent that can locally deplete levels of T-cells in the skin, apoptotic compounds were evaluated for their mechanisms of action. The ability that […] induce apoptosis by the same mechanisms was examined by cytokine secretion. […] Caspase-3 and cytokine (IL-2, IL-6, TNF, and IFN-γ) levels were determined and compared to controls at 23 and 46 hours. FdA was incorporated to evaluate the effect of the halogen group and Ara-C for its overlapping mechanisms of action. […] At the end of the treatment period, the cells were harvested and Caspase-3 induction was determined using a flow-cytometry-based method to quantify the percentage of cells that induced Caspase-3. The level of apoptosis is expressed as “% FITC shift”. Cytokine secretion (IL-2, IL-6, TNF, and IFN-γ) was measured at the same time by ELISA and is expressed in pg/mL. […]

The test system of data set [2] is Jurkat cells. As to the kind of experiment: Cytokine secretion by ELISA (Example 31). As to conditions: drug 1 μM; for Cytokine Secretion IL-2 pg/ml Mean of 3 Replicates: PHA-activated cells. Format: cell-based. Here is the method:
In a search for a topical agent that can locally deplete levels of T-cells in the skin, apoptotic compounds were evaluated for their mechanisms of action. The ability that […] induce apoptosis by the same mechanisms was examined by cytokine secretion. […] At the end of the treatment period, the cells were harvested and Caspase-3 induction was determined using a flow-cytometry-based method to quantify the percentage of cells that induced Caspase-3. The level of apoptosis is expressed as “% FITC shift”. Cytokine secretion (IL-2, IL-6, TNF, and IFN-γ) was measured at the same time by ELISA and is expressed in pg/mL.

The conditions of data set [3]: for times safer than the oncology dose: 40 grams each day, 7% penetration.
From the text: (§1) Systemic absorption is a concern, because of the potential for serious adverse events, such as lymphopenia and renal toxicity. At oncology doses, these adverse reactions are usually minimized, but the therapeutic index is narrow. Another factor that plays a role in the safety of the formulation is the amount of product administered each day. Approximately 4 grams, 12 grams, and 40 grams of a topical formulation are estimated to cover 10%, 30%, and 100% of the body surface area.
as §1
as §1, with “Calculations of safety margins have been performed, based upon this assumption and the known toxicity profile of F-Ara-A when administered IV for oncology indications. Systemic” for “Systemic”
as §1

In data set [4] the test system is U-937 cells. As to conditions: Niiitsu et al 2000; cited from earlier work.
Data set [5] concerns hairy cell leukemia (HCL). The note with it: 3.6 mg/m^2 every day for 7 days; cited from earlier work.
The target in data set [6] is dGK (Homo sapiens, UniProt Q16854). The note with it: read-out: Km for dGK; cited from earlier work.
dGK, sequence (Q16854 40-277, species assumed): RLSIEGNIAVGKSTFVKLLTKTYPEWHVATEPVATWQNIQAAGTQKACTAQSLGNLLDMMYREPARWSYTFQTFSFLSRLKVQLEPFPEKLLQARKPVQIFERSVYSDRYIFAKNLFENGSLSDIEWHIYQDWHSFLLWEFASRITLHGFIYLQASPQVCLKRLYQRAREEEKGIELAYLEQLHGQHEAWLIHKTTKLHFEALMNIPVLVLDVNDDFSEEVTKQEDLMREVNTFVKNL
Data set [7] can be described thus: Calculated concentration in the skin assuming 7% penetration.
Data set [8] concerns monocytes. As to conditions: read-out: concentration that causes 50% inhibition of monocytes; cited from earlier work.
Data set [9] has as its system chronic lymphocytic leukemia (CLL). As to conditions: 25 mg/m^2 every day for 5 days; cited from earlier work.

Where “and” joins values, the source holds several entries; their conditions need not be identical. Equal values may be shown once. Read-outs that look alike come from different tables or passages of the source. Some results are limits rather than exact numbers.

Take `Nc1nc(Cl)nc2c1ncn2[C@H]1C[C@H](O)[C@@H](CO)O1` [CdA, 2-chloro-2′-deoxyadenosine]: the “Cytokine Secretion IL-6 pg/ml Mean of 3 Replicates” value is 7 pg/mL in data set [1] (23 hr); 8 pg/mL and 7 pg/mL in data set [1] (46 hr). Besides, the “effect on suppressing the production of IL-6” value in data set [1] (46 hours) is recorded as “little effect”. The “Cytokine Secretion IL-2 pg/ml Mean of 3 Replicates” value in data set [2] (23 hr) was determined as 51 pg/mL; in data set [2] (46 hr), 105 pg/mL. The molecule also showed an IL-2 concentration in data set [2] (Jurkat cells activated by PHA, 46 hours) of 105 pg/mL. In addition, the safety factor in [3] (0.00005%, 30% of body surface area (10.8 grams/day), 7% systemic absorption) is listed as 17,142. For the same molecule, in data set [3] (topical 0.00001%), the “times safer than the oncology dose” value turned out to be 23000. In addition, the “safety margin (times safer than the oncology dose)” value was found to be 23 in data set [3] (topical 0.1% (1.0 mg/g), 10% BSA (4 grams per day), 7% systemic absorption); 7.7 in [3] (topical 0.1% (1.0 mg/g), 30% BSA (12 grams per day), 7% systemic absorption); 2.3 in data set [3] (topical 0.1% (1.0 mg/g), 100% BSA (40 grams per day), 7% systemic absorption). Moreover, the “systemic exposure per day” value worked out at 0.28 mg in data set [3] (topical 0.1% (1.0 mg/g), 10% BSA (4 grams), 7% systemic absorption); 0.84 mg in data set [3] (topical 0.1% (1.0 mg/g), 30% BSA (12 grams), 7% systemic absorption); 2.8 mg in data set [3] (topical 0.1% (1.0 mg/g), 100% BSA (40 grams), 7% systemic absorption). In data set [4], the “concentration toxic to U-937 cells on its own” value is 0.1 µM. Further, the “time to responses and complete remissions” value in [5] is reported as no more than 1 week. In addition, the Km in data set [6] is 80 µM. The “concentration achieved in the skin assuming 7% penetration” value in [7] (topical 0.00001% (0.0001 mg/g)) is “approximately 25 nM”. Moreover, the “Concentration in the skin assuming 7% penetration” value is 20 nM in [7] (topical concentration 0.00001%); 120 nM in data set [7] (topical concentration 0.00005%); 250 nM in [7] (topical concentration 0.0001%); 2450 nM in data set [7] (topical concentration 0.001%); 24500 nM in data set [7] (topical concentration 0.01%); 245010 nM in data set [7] (topical concentration 0.1%).
`Nc1nc(F)nc2c1ncn2[C@@H]1O[C@H](CO)C(O)C1O` (stereo partly drawn) [F-Ara-A, 2-fluoroadenine-9β-D-Arabinofuranoside]: the “times safer than the oncology dose” value in [3] (topical 0.0002%) is listed as 8036. Besides, the “safety margin (times safer than the oncology dose)” value in data set [3] (topical 1.0% (10 mg/g), 10% BSA (4 grams per day), 7% systemic absorption) was 16; in data set [3] (topical 1.0% (10 mg/g), 30% BSA (12 grams per day), 7% systemic absorption), 5.4; in data set [3] (topical 1.0% (10 mg/g), 100% BSA (40 grams per day), 7% systemic absorption), 1.6. In addition, the “systemic exposure per day” value in data set [3] (topical 1.0% (10 mg/g), 10% BSA (4 grams), 7% systemic absorption) was determined as 2.8 mg; in [3] (topical 1.0% (10 mg/g), 30% BSA (12 grams), 7% systemic absorption), 8.4 mg; in data set [3] (topical 1.0% (10 mg/g), 100% BSA (40 grams), 7% systemic absorption), 28 mg. For the same molecule, in [8], the IC50 was 500 nM. In data set [9], the “time to complete remissions, on average” value is 3 months. Also, the “concentration achieved in the skin assuming 7% penetration” value in [7] (topical 0.0002% (0.002 mg/g)) was “approximately 0.5 μM”.
